In DBAASP:
≈ marks a conversion by molar mass, not a printed value.

What was measured:
Test in all cases: ≥ marks a high value that may be exact or a test limit, other limits are often not marked, values filed in µg/mL are converted to µM
[1] = system: Escherichia coli ATCC 25922
[2] = system: Candida albicans KCTC 7270
[3] = system: Escherichia coli KCTC 1682
[4] = system: Salmonella typhimurium KCTC 1926
[5] = system: Staphylococcus aureus KCTC 1621
[6] = system: Pseudomonas aeruginosa ATCC 15692
[7] = system: Staphylococcus aureus ATCC 25923
[8] = system: Bacillus subtilis KCTC 1918
[9] = system: Pseudomonas aeruginosa KCTC 1637
[10] = system: Saccharomyces cerevisiae KCTC 7296
[11] = system: Trichosporon beigelii KCTC 7707
[12] = system: Proteus vulgaris KCTC 2433
[13] = system: Staphylococcus epidermidis KCTC 1917
[14] = system: Staphylococcus aureus NCTC 10788
Micrococcus luteus = system: Micrococcus luteus
Bacillus cereus = system: Bacillus cereus
Escherichia coli = system: Escherichia coli
[15] = system: Staphylococcus epidermidis
Leuconostoc lactis = system: Leuconostoc lactis
Enterobacter cloacae = system: Enterobacter cloacae
Listeria innocua = system: Listeria innocua
Pseudomonas aeruginosa = system: Pseudomonas aeruginosa
Streptococcus uberis = system: Streptococcus uberis
[16] = system: Staphylococcus aureus ATCC 29213
Enterococcus faecalis = system: Enterococcus faecalis
Pasteurella multocida = system: Pasteurella multocida
[17] = system: Micrococcus luteus ATCC 9341
[18] = system: Pseudomonas syringae pv. tomato DC3000
[19] = system: Xanthomonas vesicatoria DSM 50861
[20] = system: Clavibacter michiganensis subsp. michiganensis DSM 46294
[21] = system: Pseudomonas corrugata DSM 7228
[22] = system: Pectobacterium carotovorum subsp. carotovorum DSM 30168
[23] = system: Pseudomonas syringae pv. syringae DSM 10604
Escherichia coli BW25113 = system: Escherichia coli BW25113
[24] = system: Staphylococcus aureus USA 100

In the case of `CC[C@H](C)[C@H](NC(=O)[C@H](CCCCN)NC(=O)[C@H](CO)NC(=O)[C@H](Cc1ccccc1)NC(=O)[C@H](CC(C)C)NC(=O)[C@H](CCCCN)NC(=O)[C@@H]1CCCN1C(=O)[C@H](CC(C)C)NC(=O)[C@H](CCCN=C(N)N)NC(=O)[C@H](CCCCN)NC(=O)[C@H](Cc1ccccc1)NC(=O)[C@@H](NC(=O)[C@H](CCCCN)NC(=O)[C@H](CCCCN)NC(=O)[C@H](C)N)C(C)C)C(=O)N[C@@H](Cc1c[nH]c2ccccc12)C(=O)N[C@@H](CC(N)=O)C(=O)N[C@@H](Cc1c[nH]c2ccccc12)C(=O)N[C@@H](CCCCN)C(N)=O` [AKKVFKRLPKLFSKIWNWK], the MIC [1] is reported as 2 µM (≈ 4.83 µg/mL), the MIC [2] is reported as 3.13 µM (≈ 7.57 µg/mL) and the MIC [3] is reported as 0.19 µM (≈ 0.459 µg/mL). It also gave an MIC [4] of 0.09 µM (≈ 0.218 µg/mL), an MIC [5] of 0.39 µM (≈ 0.943 µg/mL) and an MIC [6] of 2 µM (≈ 4.83 µg/mL). The MIC [7] was 4 µM (≈ 9.67 µg/mL), the MIC [8] was 0.39 µM (≈ 0.943 µg/mL) and the MIC [9] was 1.56 µM (≈ 3.77 µg/mL). It also gave an MIC [10] of 1.56 µM (≈ 3.77 µg/mL), an MIC [11] of 1.56 µM (≈ 3.77 µg/mL) and an MIC [12] of 0.09 µM (≈ 0.218 µg/mL). The MIC [13] was 0.39 µM (≈ 0.943 µg/mL).
`CC[C@H](C)[C@H](NC(=O)[C@H](CC(C)C)NC(=O)CNC(=O)[C@H](CC(C)C)NC(=O)[C@@H](N)Cc1ccccc1)C(=O)NCC(=O)N[C@@H](CO)C(=O)N[C@@H](CC(C)C)C(=O)N[C@@H](CC(C)C)C(N)=O` [FLGLIGSLL] showed an MIC [14] of no less than 137 µM.
`CC[C@H](C)[C@H](NC(=O)[C@@H](NC(=O)[C@@H]1CCCN1C(=O)[C@@H](NC(=O)[C@@H](NC(=O)[C@H](Cc1cnc[nH]1)NC(=O)[C@@H]1CCCN1C(=O)[C@H](CC(C)C)NC(=O)[C@H](CC(C)C)NC(=O)[C@H](Cc1cnc[nH]1)NC(=O)[C@H](CCCCN)NC(=O)[C@H](C)NC(=O)[C@@H](NC(=O)[C@H](CO)NC(=O)CNC(=O)[C@H](CC(C)C)NC(=O)[C@@H](NC(=O)[C@H](CO)NC(=O)[C@H](Cc1ccccc1)NC(=O)[C@H](CC(C)C)NC(=O)CN)C(C)C)C(C)C)C(C)C)C(C)C)C(C)C)C(=O)N[C@@H](C)C(=O)N[C@@H](CCC(=O)O)C(=O)N[C@@H](CCCCN)C(=O)N[C@@H](CC(C)C)C(N)=O` [GLFSVLGSVAKHLLPHVVPVIAEKL] showed an MIC (Micrococcus luteus) of 4.57 µM (≈ 12 µg/mL), an MIC (Bacillus cereus) of 19.1 µM (≈ 50 µg/mL) and an MIC (Escherichia coli) greater than 38.1 µM. It also gave an MIC [15] of 9.53 µM (≈ 25 µg/mL), an MIC [7] of 4.57 µM (≈ 12 µg/mL) and an MIC (Leuconostoc lactis) of 9.53 µM (≈ 25 µg/mL). For the same compound, the MIC (Enterobacter cloacae) was no less than 38.1 µM, the MIC (Listeria innocua) was 4.57 µM (≈ 12 µg/mL) and the MIC (Pseudomonas aeruginosa) was greater than 38.1 µM. It also gave an MIC (Streptococcus uberis) of 9.53 µM (≈ 25 µg/mL), an MIC [16] of 4.57 µM (≈ 12 µg/mL) and an MIC (Enterococcus faecalis) of no less than 38.1 µM. For the same compound, the MIC (Pasteurella multocida) was 19.1 µM (≈ 50 µg/mL).
Compound `CC[C@H](C)[C@H](N)C(=O)N[C@@H](C)C(=O)N1CCC[C@H]1C(=O)N[C@@H](Cc1c[nH]c2ccccc12)C(=O)N[C@@H](CCCCN)C(=O)N[C@@H](Cc1c[nH]c2ccccc12)C(=O)N1CCC[C@H]1C(=O)N[C@@H](Cc1c[nH]c2ccccc12)C(=O)N[C@@H](Cc1c[nH]c2ccccc12)C(=O)N1CCC[C@H]1C(=O)N[C@@H](Cc1c[nH]c2ccccc12)C(=O)N[C@@H](CCCN=C(N)N)C(=O)N[C@@H](CCCN=C(N)N)C(N)=O` [IAPWKWPWWPWRR] has an MIC [17] of 0.4 µM (≈ 0.746 µg/mL).
In the case of `CC[C@H](C)[C@H](NC(=O)[C@H](C)NC(=O)[C@H](CCCCN)NC(=O)[C@H](CCCN=C(N)N)NC(=O)[C@H](CCCN=C(N)N)NC(=O)[C@@H](N)CCCCN)C(=O)N[C@@H](CCCCN)C(=O)N[C@H](C(=O)N[C@@H](CC(C)C)C(=O)N[C@@H](CCCCN)C(=O)N[C@@H](CC(C)C)C(=O)N[C@H](C(=O)N[C@@H](C)C(=O)N[C@@H](CCCCN)C(=O)N[C@@H](CC(C)C)C(=O)N[C@H](C(=O)N[C@@H](CCCN=C(N)N)C(=O)N[C@@H](CCCCN)C(=O)N[C@@H](CCCCN)C(=O)N[C@@H](CCCN=C(N)N)C(N)=O)[C@@H](C)CC)[C@@H](C)CC)[C@@H](C)CC` [KRRKAIKILKLIAKLIRKKR], the MIC [18] is reported as 4.04 µM (≈ 10 µg/mL), the MIC [19] is reported as 0.0404 µM (≈ 0.0999 µg/mL) and the MIC [20] is reported as 0.0404 µM (≈ 0.0999 µg/mL). It also gave an MIC [21] of 0.101 µM (≈ 0.25 µg/mL), an MIC [22] of 4.04 µM (≈ 10 µg/mL) and an MIC [23] of 4.04 µM (≈ 10 µg/mL).
`CC(C)C[C@H](NC(=O)[C@H](Cc1ccc(O)cc1)NC(=O)[C@@H]1CCCN1)C(=O)N1CCC[C@H]1C(=O)N[C@@H](CCCN=C(N)N)C(=O)N1CCC[C@H]1C(=O)NCC(=O)N[C@@H](CCCN=C(N)N)C(=O)N[C@@H](CCCN=C(N)N)C(=O)N1CCC[C@H]1C(=O)N[C@@H](CCCN=C(N)N)C(=O)N[C@@H](Cc1ccccc1)C(=O)N1CCC[C@H]1C(=O)N1CCC[C@H]1C(=O)N1CCC[C@H]1C(=O)N[C@@H](Cc1ccccc1)C(=O)N1CCC[C@H]1C(=O)O` [PYLPRPGRRPRFPPPFP] gave an MIC (Escherichia coli BW25113) of no less than 64 µM.
Work on `NC(=O)CC[C@H](NC(=O)[C@H](CCCN=C(N)N)NC(=O)[C@@H](N)CCC(N)=O)C(=O)N[C@@H](CCCN=C(N)N)C(N)=O` [QRQR] yielded an MIC [24] of no less than 100 µM.
In the case of `CC[C@H](C)[C@H](NC(=O)[C@@H]1CCCN1C(=O)[C@@H]1CCCN1C(=O)[C@H](CCCN=C(N)N)NC(=O)[C@H](Cc1ccccc1)NC(=O)[C@@H](N)CCCN=C(N)N)C(=O)N[C@@H](CCCN=C(N)N)C(=O)N[C@@H](CCCN=C(N)N)C(=O)N1CCC[C@H]1C(=O)N1CCC[C@H]1C(=O)N[C@H](C(=O)N[C@@H](CCCN=C(N)N)C(=O)N1CCC[C@H]1C(=O)N1CCC[C@H]1C(=O)N[C@@H](Cc1ccccc1)C(=O)N[C@@H](Cc1c[nH]c2ccccc12)C(=O)N1CCC[C@H]1C(=O)O)[C@@H](C)CC` [RFRPPIRRPPIRPPFWP], the MIC (Escherichia coli BW25113) is reported as 16 µM (≈ 35 µg/mL).
With `CC[C@H](C)[C@H](NC(=O)[C@H](CCCCN)NC(=O)[C@H](Cc1ccccc1)NC(=O)[C@H](CCCCN)NC(=O)[C@H](CCCCN)NC(=O)[C@H](CCCCN)NC(=O)[C@@H](N)CCCN=C(N)N)C(=O)N[C@@H](Cc1ccccc1)C(=O)N[C@@H](CCCCN)C(=O)N[C@@H](CCCN=C(N)N)C(=O)N[C@@H](CC(C)C)C(=O)N[C@@H](Cc1ccccc1)C(N)=O` [RKKKFKIFKRLF] the MIC [18] was 0.61 µM (≈ 0.999 µg/mL), the MIC [19] was 0.61 µM (≈ 0.999 µg/mL) and the MIC [20] was 0.61 µM (≈ 0.999 µg/mL). For the same compound, the MIC [21] was 0.305 µM (≈ 0.5 µg/mL), the MIC [22] was 6.1 µM (≈ 9.99 µg/mL) and the MIC [23] was 0.061 µM (≈ 0.0999 µg/mL).
`CC[C@H](C)[C@H](NC(=O)[C@@H]1CCCN1C(=O)[C@@H]1CCCN1C(=O)[C@H](CCCN=C(N)N)NC(=O)[C@H](Cc1c[nH]c2ccccc12)NC(=O)[C@@H](N)CCCN=C(N)N)C(=O)N[C@@H](CCCN=C(N)N)C(=O)N[C@@H](CCCN=C(N)N)C(=O)N1CCC[C@H]1C(=O)N1CCC[C@H]1C(=O)N[C@H](C(=O)N[C@@H](CCCN=C(N)N)C(=O)N1CCC[C@H]1C(=O)N1CCC[C@H]1C(=O)N[C@@H](Cc1c[nH]c2ccccc12)C(=O)N[C@@H](Cc1ccc(O)cc1)C(=O)N1CCC[C@H]1C(=O)O)[C@@H](C)CC` [RWRPPIRRPPIRPPWYP] gave an MIC (Escherichia coli BW25113) of 16 µM (≈ 35.9 µg/mL).
